From the supplement of paper PMC10307832 come the findings set out here.

Common to all, as to assay: relative viability (nuclei count vs DMSO), 5 days (fraction); higher = more cells survive
Compound in test [1]: C1CC(C1)(C(=O)O)C(=O)O.[NH2-].[NH2-].[Pt+2] [Carboplatin] + O=C(CCCCCCC(=O)Nc1ccccc1)NO [Vorinostat] (partner 1 µM)
The method, boiled down:
(§1)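 For relative viability, nuclei counts in treated wells were divided by those in vehicle wells. Lung cancer cell lines had been pin-tool dosed in 1536-well plates the day after seeding and cultured for 5 days, then fixed and stained in one step (final 0.05% Triton X-100, 1% formaldehyde, 1 ug/ml Hoechst) and imaged at 4×. Doses were one drug alone or a fixed anchor-drug dose plus five library-drug doses (not always all listed) in √10 steps, and values are duplicate-plate medians.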

Compound in test [2]: CC[C@H](C)N1C=C(C2=C(C=C(C=C21)C3=CN=C(C=C3)N4CCNCC4)C(=O)NCC5=C(C=C(NC5=O)C)C)C [GSK126] + CC(C)C[C@H](NC(=O)[C@H](Cc1ccccc1)NC(=O)c1cnccn1)B(O)O [Bortezomib] (partner 0.002 µM)
The method, boiled down:
as §1

Compound in test [3]: NS(=O)(=O)OC[C@@H]1C[C@@H](n2ccc3c(N[C@H]4CCc5ccccc54)ncnc32)C[C@@H]1O [MLN4924] + CC(C)C[C@H](NC(=O)[C@H](Cc1ccccc1)NC(=O)c1cnccn1)B(O)O [Bortezomib] (partner 0.002 µM)
The method, boiled down: as §1

Compound in test [4]: NS(=O)(=O)OC[C@@H]1C[C@@H](n2ccc3c(N[C@H]4CCc5ccccc54)ncnc32)C[C@@H]1O [MLN4924] + COc1cccc2cc(-c3nc([C@H]4CC[C@H](C(=O)O)CC4)n4ncnc(N)c34)[nH]c12 [OSI-027] (partner 0.5 µM)
In short, it runs like this: as §1

Take UMC-11: the relative viability in test [1] (first compound 0.08 µM) was 0.425; in test [1] (first compound 0.253 µM), 0.364; in test [1] (first compound 0.8 µM) it was 0.36; in test [1] (first compound 2.53 µM), 0.37; in test [1] (first compound 8 µM) it was 0.283; in test [2] (first compound 0.08 µM) it was 0.842. The relative viability turned out to be 0.628 in test [2] (first compound 0.253 µM); 0.747 in test [2] (first compound 0.8 µM); 0.643 in test [2] (first compound 2.53 µM); 0.895 in test [2] (first compound 8 µM); 0.529 in test [3] (first compound 0.04 µM); 0.301 in test [3] (first compound 0.1265 µM). Besides, the relative viability stood at 0.269 in test [3] (first compound 0.4 µM); 0.1 in test [3] (first compound 1.265 µM); 0.0977 in test [3] (first compound 4 µM); 0.429 in test [4] (first compound 0.04 µM); 0.315 in test [4] (first compound 0.1265 µM); 0.271 in test [4] (first compound 0.4 µM). Further, the relative viability in test [4] (first compound 1.265 µM) worked out at 0.168; in test [4] (first compound 4 µM), 0.179.
